{
  "source": "patent US20230203014A1",
  "about": "“NOVEL F[…] FOR LABELING TUMOR TISSUE” (PROIMAGING, priority 2020, published 2023)",
  "key": {"[1]": {"test_system": "orthotopic pancreatic adenocarcinoma", "experiment": "ex vivo fluorescence imaging of pancreatic tumors", "type": "in vivo, mouse", "details": "control dye", "experimental": "A model of orthotopic pancreatic adenocarcinoma in the mouse was developed. The tumoral cells were amplified subcutaneously in SCID mice and the resultant fragments were then implanted surgically in the pancreas of irradiated BALB/c nude mice.\nThe development of the tumor was monitored in vivo by MRI (4.7T, PharmaScan, Bruker Biospin) at three time points, D14, 28 and 36. The animals were subjected to […] in order to minimize autofluorescence. Fluorescent imaging was performed with a charge-coupled device (CCD) camera (PhotonRT, BiospaceLab) with excitation at 700 nm and an emission filter at 770 nm.\nAfter sessions of in vivo imaging performed at 2 h, 48 h and 164 h, ex vivo fluorescent images were acquired. The fluorescent compounds according to the invention 2 (CJ215) and CJ319 (the structure of which is detailed below) were injected intravenously at 2 mg/kg, 39 days after implantation of the tumor fragments, whereas the average volumes of the tumors were about 70 mm^3. Indocyanine green (ICG), a dye widely used in the per-operative imaging of tumors, was included as a control."}, "[2]": {"test_system": "4T1-Dendra2 mammary tumors", "experiment": "in vivo imaging of mammary tumors (fluorescence, IVIS Spectrum)", "design": "species or system mice", "details": "starting from 48 h post-injection", "excerpt": "ICG (or indocyanine green / Infracyanine) is a fluorescent agent of the prior art, already approved for use in humans for evaluation of cardiac and hepatic function, as well as in ophthalmology, for retinal diseases. It is also undergoing evaluation in many clinical trials throughout the world for guidance of surgery during tumoral exereses, or mapping of the ganglia draining the tumors, by near infrared imaging. ICG was compared with compound (2) according to the invention, synthesis of which is described above in example 2; this compound is called CJ215 in this study.\nThe study included 30 mice in total, distributed in three groups. The tumoral grafts were all carried out with 50 000 cells 4T1-Dendra2 /20 µl injected in 2 mammary glands contralaterally for each of the mice. […]\nThe variation of the intensity of the fluorescence signals recorded for each of the biomarkers over time was evaluated from the microscopy image. The capacity of the two markers for producing a signal specifically localized to the tumor was assessed quantitatively by calculating the ratio of the specific signal associated with the tumor to the nonspecific signal in the surrounding tissues. […]\nThe quantitative measurements were performed on the raw images, which had not been deconvoluted. […]"}},
  "data": [
    {"compound": "CC1(C)C(/C=C/C=C/C=C/C=C2\\N(CCCCS(=O)(=O)O)c3ccc4ccccc4c3C2(C)C)=[N+](CCCCS(=O)(=O)[O-])c2ccc3ccccc3c21", "note": "[ICG, indocyanine green]", "values": [
      {"measurement": "specific accumulation in the pancreas or the tumor", "setting": "[1]", "value": "did not show any specific accumulation"},
      {"measurement": "observability of the fluorescent signal in the tumors", "setting": "[2]", "value": "no longer observable in the tumors"}
    ]}
  ]
}
